Assay results reported in article PMC3548404 (Nature, 2010).

How the values were obtained:
AtSLAC1 [1] = target: T1, AtSLAC1 (Arabidopsis thaliana, UniProt Q9LD83); conditions: 30 mM CsCl bath, pH 5.6; permeant anion; no AtOST1
T1 sequence (Q9LD83 1-556): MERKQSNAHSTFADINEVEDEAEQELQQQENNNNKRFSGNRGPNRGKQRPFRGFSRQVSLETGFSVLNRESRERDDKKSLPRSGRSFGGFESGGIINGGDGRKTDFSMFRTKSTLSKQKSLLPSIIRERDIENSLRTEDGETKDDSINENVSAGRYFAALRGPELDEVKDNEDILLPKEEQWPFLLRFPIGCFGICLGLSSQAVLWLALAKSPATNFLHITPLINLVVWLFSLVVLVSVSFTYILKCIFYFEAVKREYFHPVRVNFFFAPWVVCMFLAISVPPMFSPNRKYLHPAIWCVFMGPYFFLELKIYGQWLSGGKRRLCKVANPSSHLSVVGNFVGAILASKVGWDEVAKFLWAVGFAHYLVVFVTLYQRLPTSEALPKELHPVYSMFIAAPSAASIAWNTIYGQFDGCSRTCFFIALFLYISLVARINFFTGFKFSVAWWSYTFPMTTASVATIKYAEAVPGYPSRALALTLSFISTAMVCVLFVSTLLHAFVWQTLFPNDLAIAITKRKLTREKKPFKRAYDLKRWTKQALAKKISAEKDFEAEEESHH

AtSLAC1 [2] = target: T1, AtSLAC1; assay: two-electrode voltage clamp, Xenopus oocytes; format: cell-based; conditions: 50 mM sodium salt in bath, pH 5.6; permeant anion

Compound	chloride current at -90 mV (AtSLAC1 [1])	P[X]/P[Cl] (AtSLAC1 [2])
Cl [chloride]	We observed modest-sized chloride currents with wild-type AtSLAC1 cRNA	–
O=[N+]([O-])O [nitrate]	–	selective among anions, with greater permeability for nitrate than for chloride
